Source: paper PMC3830934 (Science (New York, N.Y.), 2002)

Target: T1, human DHFR (Homo sapiens, UniProt P00374)
T1 sequence (P00374 1-187): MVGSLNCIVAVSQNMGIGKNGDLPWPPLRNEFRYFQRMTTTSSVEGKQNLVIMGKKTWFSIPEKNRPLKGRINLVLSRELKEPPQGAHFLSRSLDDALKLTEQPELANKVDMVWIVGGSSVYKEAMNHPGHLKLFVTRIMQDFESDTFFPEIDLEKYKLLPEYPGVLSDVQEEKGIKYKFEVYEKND
Test: enzyme kinetic assay
Format: biochemical

Ki: 12 nM
Compound: CC1(C)N=C(N)N=C(N)N1OCCCOc1cc(Cl)c(Cl)cc1Cl [WR99210]
